One test deals with T1, glucagon receptor (GCGR) (Homo sapiens, UniProt P47871).
T1 construct: expressed in transfected cells; host or cells: CHO-K1 cells overexpressing GCGR (membrane fractions)
Briefly: I125-glucagon binding assay (competition, GCGR membrane fractions). Summed up: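 Competition of 0.0625 nM (final) I^125-glucagon for 30 min at 25° C, after 5 min compound preincubation, using 7.5 μg/well GCGR-overexpressing CHO-K1 membranes in 50 mM Tris pH 7.4, 0.5% BSA. Filtration onto PEI-coated GF/B, micro-beta counting, and non-linear regression gave IC50.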

Test [1] has as its target T2, glucagon receptor (GCGR) overexpressed CHO-K1 cells or human primary hepatocytes (Homo sapiens, UniProt P47871).
T2 construct: expressed in transfected cells; host or cells: GCGR overexpressed CHO-K1 cells or human primary hepatocytes (endogenous receptor)
Briefly: Glucagon cAMP inhibition assay (Cisbio cAMP Dynamic 2 HTRF). The test is classed as cell-based. Summed up:
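HTRF read-out of glucagon-induced cAMP, with IC50 from non-linear regression. Cells (GCGR CHO-K1 or human primary hepatocytes) in HBSS/0.1% BSA/800 nM IBMX took compound dilutions for 30 min (final DMSO 1%), then EC50-level glucagon for 30 min at room temperature, then a 60 min lysis/detection step.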
In general terms: Time-resolved FRET reads energy transfer from a long-lived donor to a nearby acceptor.

Setting [2] is: competition with I125-glucagon 0.0625 nM, membrane fractions of GCGR overexpressed CHO-K1 cells.
Setting [3] is: inhibition of glucagon (EC50 concentration) induced cAMP production.

The term IC50 denotes the midpoint of a concentration-inhibition curve. Read a low IC50 as inhibition by little substance. Broadly, the inhibition is the percentage by which the read-out fell short of the control.

Read-outs that look alike come from different tables or passages of the source.

T1 sequence (P47871 26-477): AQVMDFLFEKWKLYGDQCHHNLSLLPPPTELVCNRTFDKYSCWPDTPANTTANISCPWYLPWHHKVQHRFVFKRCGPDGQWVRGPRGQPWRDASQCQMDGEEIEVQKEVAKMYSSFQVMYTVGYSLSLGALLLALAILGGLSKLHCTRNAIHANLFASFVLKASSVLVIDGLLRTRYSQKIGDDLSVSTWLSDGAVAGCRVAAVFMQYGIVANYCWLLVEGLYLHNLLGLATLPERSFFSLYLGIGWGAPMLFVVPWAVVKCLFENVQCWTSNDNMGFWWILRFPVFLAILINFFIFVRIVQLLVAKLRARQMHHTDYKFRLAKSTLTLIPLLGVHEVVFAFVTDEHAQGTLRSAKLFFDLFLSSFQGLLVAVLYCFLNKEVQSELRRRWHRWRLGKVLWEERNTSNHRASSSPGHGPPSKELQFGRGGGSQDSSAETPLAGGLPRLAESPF
T2 sequence (P47871 26-477): as above

On glucagon receptor (GCGR) (setting [2]), `CC(C)[C@@H](COc1cc(F)c(-c2ccc(C(F)(F)F)cc2Cl)c(F)c1)Nc1ccc(C(=O)NCCC(=O)O)cc1` [Compound 7-2, (S)-3-(4-((1-((2′-chloro-2,6-difluoro-4′-(trifluoromethyl)-[1,1′-biphenyl]-4-yl)oxy)-3-methylbutan-2-yl)amino)benzamido)propanoic Acid] yielded an IC50 of 0.177 µM. Also, the “IC50 cAMP” value in test [1] (setting [3]) is reported as 201 nM.
As for `CC(C)[C@@H](COc1ccc(-c2ccc(C(F)(F)F)cc2)nc1)Nc1ccc(C(=O)NCCC(=O)O)cc1` [Compound 10-1, (S)-3-(4-((3-methyl-1-((6-(4-(trifluoromethyl)phenyl)pyridin-3-yl)oxy)butan-2-yl)amino)benzamido)propanoic Acid], on glucagon receptor (GCGR) (setting [2]), the 50% inhibitory concentration (IC50) amounted to 0.531 µM. Further, in test [1] (setting [3]), the “IC50 cAMP” value came out at 1959 nM.
`CC(C)C[C@@H](COc1cc(F)c(-c2ccc(C(F)(F)F)cc2F)c(F)c1)Nc1ccc(C(=O)NCCC(=O)O)cc1` [Compound 7-7, (S)-3-(4-((4-methyl-1-((2,2′,6-trifluoro-4′-(trifluoromethyl)-[1,1′-biphenyl]-4-yl)oxy)pentan-2-yl)amino)benzamido)propanoic Acid]: at glucagon receptor (GCGR) (setting [2]), the IC50 turned out to be 0.307 µM. For the same compound, in test [1] (setting [3]), the “IC50 cAMP” value was 689 nM.
Regarding `CC(C)[C@@H](COc1ccc(-c2ccc(C(F)(F)F)cc2)cc1)Nc1ccc(C(=O)NCCC(=O)O)cn1` [Compound 4-1, (S)-3-(6-((3-methyl-1-((4′-(trifluoromethyl)-[1,1′-biphenyl]-4-yl)oxy)butan-2-yl)amino)nicotinamido)propanoic Acid], the 50% inhibitory concentration (IC50) on glucagon receptor (GCGR) (setting [2]) was found to be 0.369 µM. The “IC50 cAMP” value in test [1] (setting [3]) is listed as 626.9 nM.
`CCOC(=O)CCNC(=O)c1ccc(N[C@H](COc2ccc(-c3nc4ccccc4o3)cc2)C(C)C)cc1` [Compound 1-47, Ethyl (S)-3-(4-((1-(4-(benzo[d]oxazol-2-yl)phenoxy)-3-methylbutan-2-yl)amino)benzamido)propanoate] returned an IC50 on glucagon receptor (GCGR) (setting [2]) of over 30 µM. Besides, at glucagon receptor (GCGR) (compound at the concentration of 30 μM, read-out: percentage of inhibition (binding)), the inhibition at 30 µM came to 56%. Further, the “IC50 cAMP” value in test [1] (setting [3]) amounted to 170 nM.
In turn, `CC(C)C[C@@H](COc1ccc(-c2ccc(C(F)(F)F)cc2Cl)cn1)Nc1ccc(C(=O)NCCS(=O)(=O)O)cc1` [Compound 15-18] displayed an IC50 at glucagon receptor (GCGR) of 1.31 µM. The “IC50 cAMP” value in test [1] is recorded as over 30000 nM.
As to `CC[C@H](C)[C@@H](COc1ccc(-c2nnc(-c3ccccc3)o2)cc1)Nc1ccc(C(=O)NCCC(=O)O)cc1` [Compound 1-46, 3-(4-(((2S,3S)-3-methyl-1-(4-(5-phenyl-1,3,4-oxadiazol-2-yl)phenoxy)pentan-2-yl)amino)benzamido)propanoic Acid], at glucagon receptor (GCGR) (setting [2]), the IC50 was 0.601 µM. Also, in test [1] (setting [3]), the “IC50 cAMP” value came out at 5441 nM.
Consider `CC(C)[C@@H](COc1ccc(-c2ccc(N(C)C)cc2)cc1)Nc1ccc(C(=O)NCCC(=O)O)cc1` [Compound 1-12, (S)-3-(4-((1-((4′-(dimethylamino)-[1,1′-biphenyl]-4-yl)oxy)-3-methylbutan-2-yl)amino)benzamido)propanoic Acid], for which, at glucagon receptor (GCGR) (setting [2]), the IC50 is 0.224 µM. In addition, the “IC50 cAMP” value in test [1] (setting [3]) was 414.3 nM.
`CCCC[C@@H](COc1cc(C)c(-c2cc3ccccc3o2)c(C)c1)Nc1ccc(C(=O)NCc2nnn[nH]2)cc1` [Compound 2-13, (S)—N-((1H-tetrazol-5-yl)methyl)-4-((1-(4-(benzofuran-2-yl)-3,5-dimethylphenoxy)hexan-2-yl)amino)benzamide] came in with a half-maximal inhibitory concentration (IC50) at glucagon receptor (GCGR) (setting [2]) of 0.167 µM. The “IC50 cAMP” value in test [1] (setting [3]) worked out at 148.5 nM.
The corresponding values for `CCCC[C@@H](COc1ccc(-c2nnc(C(C)(C)C)o2)cc1)Nc1ccc(C(=O)NCCC(=O)O)cc1` [Compound 1-49, (S)-3-(4-((1-(4-(5-(tert-butyl)-1,3,4-oxadiazol-2-yl)phenoxy)hexan-2-yl)amino)benzamido)propanoic Acid] are 7.2 µM and 7065 nM.
In turn, `CC(C)[C@@H](COc1ccc(-c2nc3ccccc3o2)cc1)Nc1ccc(C(=O)NCCC(=O)O)cc1` [Compound 1-48, (S)-3-(4-((1-(4-(benzo[d]oxazol-2-yl)phenoxy)-3-methylbutan-2-yl)amino)benzamido)propanoic Acid] registered an IC50 at glucagon receptor (GCGR) (setting [2]) of 0.138 µM. Also, in test [1] (setting [3]), the “IC50 cAMP” value amounted to 546 nM.
`CC(C)C[C@@H](COc1ccc(-c2ccc(Cl)cc2Cl)nc1)Nc1ccc(C(=O)NCCC(=O)O)cc1` [Compound 10-19, (S)-3-(4-((1-((6-(2,4-dichlorophenyl)pyridin-3-yl)oxy)-4-methylpentan-2-yl)amino)benzamido)propanoic Acid] had an IC50 at glucagon receptor (GCGR) (setting [2]) of 0.301 µM. Further, the “IC50 cAMP” value in test [1] (setting [3]) turned out to be 1064 nM.
The corresponding values for `CC[C@H](C)[C@@H](COc1ccc(-c2cc3ccccc3o2)cc1)Nc1ccc(C(=O)NC[C@@H](O)C(=O)O)cc1` [Compound 1-9, (R)-3-(4-(((2S,3S)-1-(4-(benzofuran-2-yl)phenoxy)-3-methylpentan-2-yl)amino)benzamido)-2-hydroxypropanoic Acid] are 0.26 µM and 3600 nM.
Consider `CC(C)[C@@H](COc1ccc(-c2ccc(N(C)C)cc2)cc1)Nc1ccc(C(=O)NC[C@@H](O)C(=O)O)cc1` [Compound 1-21, (R)-3-(4-(((S)-1-((4′-(dimethylamino)-[1,1′-biphenyl]-4-yl)oxy)-3-methylbutan-2-yl)amino)benzamido)-2-hydroxypropanoic Acid], for which the IC50 at glucagon receptor (GCGR) (setting [2]) was over 30 µM. Further, the “IC50 cAMP” value in test [1] (setting [3]) is reported as over 30000 nM.
At glucagon receptor (GCGR), `CCCC[C@@H](COc1ccc(-c2ccc(C(F)(F)F)cc2Cl)c(C)n1)Nc1ccc(C(=O)NCCC(=O)O)cc1` [Compound 18-2, (S)-3-(4-((1-((5-(2-chloro-4-(trifluoromethyl)phenyl)-6-methylpyridin-2-yl)oxy)hexan-2-yl)amino)benzamido)propanoic Acid] yielded a concentration for half-maximal inhibition (IC50) of 0.042 µM. Also, the “IC50 cAMP” value in test [1] turned out to be 49 nM.
For `CC[C@H](C)[C@@H](COc1ccc(-c2ccc(Cl)cc2Cl)cc1)Nc1ccc(C(=O)NCCC(=O)O)cc1` [Compound 1-7, 3-(4-(((2S,3S)-1-((2′,4′-dichloro-[1,1′-biphenyl]-4-yl)oxy)-3-methylpentan-2-yl)amino)benzamido)propanoic Acid], on glucagon receptor (GCGR) (setting [2]), the IC50 amounted to 0.139 µM. In addition, in test [1] (setting [3]), the “IC50 cAMP” value was 494.8 nM.
The corresponding values for `CC(C)(C)[C@@H](COc1ccc(-c2ccc(C(F)(F)F)cc2F)c(F)c1)Nc1ccc(C(=O)NCCC(=O)O)cc1` [Compound 8-23, (S)-3-(4-((1-((2,2′-difluoro-4′-(trifluoromethyl)-[1,1′-biphenyl]-4-yl)oxy)-3,3-dimethylbutan-2-yl)amino)benzamido)propanoic Acid] are 0.081 µM and 89.46 nM.
At glucagon receptor (GCGR) (setting [2]), `CC(C)[C@@H](COc1ccc(-c2cc(Cl)cc(Cl)c2)nc1)Nc1ccc(C(=O)NCCC(=O)O)cc1` [Compound 10-5, (S)-3-(4-((1-((6-(3,5-dichlorophenyl)pyridin-3-yl)oxy)-3-methylbutan-2-yl)amino)benzamido)propenoic Acid] showed an IC50 of 0.441 µM. For the same compound, the “IC50 cAMP” value in test [1] (setting [3]) was 3690 nM.
The matching figures for `CC[C@H](C)[C@@H](COc1ccc(-c2ccc(C(F)(F)F)cc2Cl)c(OC)c1)Nc1ccc(C(=O)NCCC(=O)O)cc1` [Compound 13-3, 3-(4-(((2S,3S)-1-((2′-chloro-2-methoxy-4′-(trifluoromethyl)-[1,1′-biphenyl]-4-yl)oxy)-3-methylpentan-2-yl)amino)benzamido)propanoic Acid]: 0.057 µM and 71 nM.
`CCCC[C@@H](COc1nnc(-c2ccc(C(F)(F)F)cc2F)o1)Nc1ccc(C(=O)NCCC(=O)O)cc1` [Compound 22-3, (S)-3-(4-((1-((5-(2-fluoro-4-(trifluoromethyl)phenyl)-1,3,4-oxadiazol-2-yl)oxy)hexan-2-yl)amino)benzamido)propanoic Acid]: the IC50 on glucagon receptor (GCGR) was 13.6 µM. For the same compound, the “IC50 cAMP” value in test [1] was over 30000 nM.
In turn, `CC(C)C[C@@H](COc1cnc(-c2ccc(Cl)cc2Cl)nc1)Nc1ccc(C(=O)NCCC(=O)O)cc1` [Compound 12-11, (S)-3-(4-((1-((2-(2,4-dichlorophenyl)pyrimidin-5-yl)oxy)-4-methylpentan-2-yl)amino)benzamido)propanoic Acid] returned an IC50 on glucagon receptor (GCGR) (setting [2]) of 0.233 µM. Besides, the “IC50 cAMP” value in test [1] (setting [3]) stood at 3585 nM.
`CC(C)[C@@H](COc1cc(Cl)c(-c2cc3ccccc3o2)cc1Cl)Nc1ccc(C(=O)NCCC(=O)O)cc1` [Compound 3-14, (S)-3-(4-((1-(4-(benzofuran-2-yl)-2,5-dichlorophenoxy)-3-methylbutan-2-yl)amino)benzamido)propanoic Acid] returned an IC50 at glucagon receptor (GCGR) (setting [2]) of 0.058 µM. Further, the “IC50 cAMP” value in test [1] (setting [3]) came out at 115.4 nM.
On to `CCCOC[C@H](Cc1ccc(-c2c(C)cc(C)cc2C)cc1)Nc1ccc(C(=O)NCCC(=O)O)cc1` [Compound 19-16, (S)-3-(4-((1-propoxy-3-(2′,4′,6′-trimethyl-[1,1′-biphenyl]-4-yl)propan-2-yl)amino)benzamido)propanoic Acid], for which the IC50 on glucagon receptor (GCGR) came out at 3.7 µM. The “IC50 cAMP” value in test [1] was 1729 nM.
`CCOC(=O)CCNC(=O)c1ccc(N[C@@H](Cc2ccc3ccccc3c2)C(=O)Nc2ccc(C(C)(C)C)cc2)cc1` [Compound 23-19, Ethyl (S)-3-(4-((1-((4-(tert-butyl)phenyl)amino)-3-(naphthalen-2-yl)-1-oxopropan-2-yl)amino)benzamido)propanoate] came in with an IC50 on glucagon receptor (GCGR) (uM) of over 10 µM. In test [1], the “IC50 cAMP” value is 5400 nM.

(Values after patent US11384060B2, “Amide compounds and use thereof” (ALPHALA CO., LTD., priority 2017, dated 2022).)
